Experimental data: patent US20240335431A1, “1-H-PYRROLO[2,3-c]PYRIDINE COMPOUNDS” (Acerta Pharma B.V., priority 2023, published 2024)

Tests used:
muscarinic M2 receptor = muscarinic M2 receptor (Homo sapiens (Human), UniProt P08172); assay: Muscarinic M2 receptor functional assay, antagonist effect (assay 2); assay type: cell-based; details: cAMP, 1 μM acetylcholine
Protocol: Thereafter, the reference agonist acetylcholine and the adenylyl cyclase activator NKH 477 were added at respective final concentrations of 1 μM and 5 μM. For basal control measurements, acetylcholine was omitted from the wells containing 10 μM methoctramine. Following 10 minutes incubation at 37° C., the cells were lysed, and the fluorescence acceptor (D2-labeled cAMP) and fluorescence donor (anti-cAMP antibody labelled with europium cryptate) were added. After 60 minutes at room temperature, the fluorescence transfer was measured at λex=337 nm and λem=620 and 665 nm using a microplate reader (Rubystar, BMG). The cAMP concentration was determined by dividing the signal measured at 665 nm by that measured at 620 nm (ratio). The results were expressed as a percent inhibition of the control response to 1 μM acetylcholine. For test compounds and for standard reference antagonist methoctramine, which is tested in each experiment, assays were run in eight-point concentration response mode and IC50 values determined following non-linear regression curve analysis. Curve analysis was completed using software developed at Cerep (Hill software) and validated by comparison with data generated by the commercial software SigmaPlot®4.0 for Windows® (© 1997 by SPSS Inc.).

hERG = hERG (Homo sapiens (Human), UniProt Q12809); assay: hERG assay 2, QPatch II 48X, room temperature; assay type: cell-based; details: hERG DUO cell line, top 200 μM
hERG, sequence (Q12809 whole entry): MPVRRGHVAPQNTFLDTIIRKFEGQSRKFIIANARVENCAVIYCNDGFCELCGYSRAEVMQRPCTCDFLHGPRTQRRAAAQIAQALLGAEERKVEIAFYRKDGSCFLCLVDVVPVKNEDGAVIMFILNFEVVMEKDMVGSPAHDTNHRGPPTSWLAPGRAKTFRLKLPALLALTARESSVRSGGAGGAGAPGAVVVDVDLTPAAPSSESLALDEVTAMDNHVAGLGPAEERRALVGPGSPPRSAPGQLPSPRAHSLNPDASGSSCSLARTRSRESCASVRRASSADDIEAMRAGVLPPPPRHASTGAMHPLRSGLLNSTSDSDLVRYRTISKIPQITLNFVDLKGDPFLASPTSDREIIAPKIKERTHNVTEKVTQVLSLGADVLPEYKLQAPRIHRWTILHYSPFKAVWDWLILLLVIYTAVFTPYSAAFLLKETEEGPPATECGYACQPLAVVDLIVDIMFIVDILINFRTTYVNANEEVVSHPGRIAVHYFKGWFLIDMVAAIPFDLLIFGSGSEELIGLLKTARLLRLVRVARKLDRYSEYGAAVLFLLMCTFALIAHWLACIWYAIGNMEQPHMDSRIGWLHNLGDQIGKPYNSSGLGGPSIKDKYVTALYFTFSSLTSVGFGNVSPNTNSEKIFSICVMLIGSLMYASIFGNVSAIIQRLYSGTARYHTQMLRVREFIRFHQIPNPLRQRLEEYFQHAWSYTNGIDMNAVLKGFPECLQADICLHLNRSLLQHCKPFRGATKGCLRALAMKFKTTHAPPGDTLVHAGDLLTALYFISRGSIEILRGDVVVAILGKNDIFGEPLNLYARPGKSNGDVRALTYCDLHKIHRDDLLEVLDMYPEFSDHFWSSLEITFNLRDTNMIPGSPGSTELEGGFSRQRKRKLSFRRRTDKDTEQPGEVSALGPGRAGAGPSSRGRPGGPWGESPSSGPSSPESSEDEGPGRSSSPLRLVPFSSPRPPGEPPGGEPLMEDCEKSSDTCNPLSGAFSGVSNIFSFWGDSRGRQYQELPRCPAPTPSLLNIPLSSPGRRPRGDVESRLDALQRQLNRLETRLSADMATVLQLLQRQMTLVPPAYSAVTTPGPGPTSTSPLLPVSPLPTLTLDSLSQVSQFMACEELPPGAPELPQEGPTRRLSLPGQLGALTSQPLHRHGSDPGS
Protocol: Experiments were performed on the QPatch II 48X (Sophion Biosciences) high throughput patch clamp platform at room temperature and used single hole Qplates. hERG DUO cell line (BSys) was used. The internal patch clamp solution was KF 60 mM, KCl 70 mM, HEPES 10 mM, EGTA 10 mM, and 5 mM Mg ATP (pH7.2). After sealing and whole cell access was gained the external solution (NaCl 140 mM, KCl 4 mM, HEPES 10 mM, CaCl2 2 mM, MgCl2 1 mM, glucose 5 mM (pH 7.4) was applied twice to establish stable baseline currents. An industry standard +40/−40 mV voltage protocol was applied every 15 seconds. All compounds were tested in a 6-point cumulative assay (final DMSO concentration 0.4-2% depending on stock concentration of compounds). Compounds were dispensed from initial 10 mM or 50 mM DMSO stocks after which DMSO dilutions were undertaken with a top concentration of 200 μM tested. Solvent controls were run in all experiments in line with the DMSO % required. Only wells that passed acceptance criteria for this platform were used in this analysis (500 MegaOhm seal resistance and current size >0.2 nA). Analysis was completed in Prism Graphpad to complete a composite IC50, by plotting % inhibition versus log compound concentration and using a log(inhibitor) vs. response—Variable slope.

Menin protein = Menin protein (Homo sapiens, UniProt O00255, DEL460-519); assay: Menin/MLL fluorescence polarization (FP) assay; assay type: binding; details: Menin 2 nM, cRho110-Ahx-MBM1/MBM2 peptide 1 nM
Menin protein, sequence (O00255 with tags, fused parts or gaps DEL460-519): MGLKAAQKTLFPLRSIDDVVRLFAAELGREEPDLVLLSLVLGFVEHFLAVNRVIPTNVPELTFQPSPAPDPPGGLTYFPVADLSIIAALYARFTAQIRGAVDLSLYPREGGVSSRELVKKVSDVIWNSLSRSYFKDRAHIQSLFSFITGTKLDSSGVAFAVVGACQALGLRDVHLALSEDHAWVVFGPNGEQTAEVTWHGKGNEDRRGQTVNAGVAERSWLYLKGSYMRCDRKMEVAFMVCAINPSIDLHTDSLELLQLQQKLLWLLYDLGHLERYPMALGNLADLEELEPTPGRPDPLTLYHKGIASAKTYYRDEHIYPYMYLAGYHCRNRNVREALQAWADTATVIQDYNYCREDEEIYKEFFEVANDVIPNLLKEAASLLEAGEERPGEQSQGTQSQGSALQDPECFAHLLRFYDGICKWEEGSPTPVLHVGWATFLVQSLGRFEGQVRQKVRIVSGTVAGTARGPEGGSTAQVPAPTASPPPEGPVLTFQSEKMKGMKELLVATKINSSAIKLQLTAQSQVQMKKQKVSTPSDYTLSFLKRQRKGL
Summary of the method: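 Fluorescence polarization of 1 nM cRho110-labelled MBM1/MBM2 peptide with 2 nM His-tagged Menin in 50 mM Tris pH 7.5, 50 mM NaCl, 1 mM TCEP, 0.01% BGG, 0.01% Brij-35. Compound series: 10-fold dilutions from 10 μM; 480/535 nm, read every 5 min for 180 min. IC50 via one-site fit, normalized to no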

hERG ion channel = hERG ion channel (Homo sapiens (Human), UniProt Q12809); assay: hERG assay 3, QPatchII 48X, 30 degrees Celsius; assay type: cell-based; details: CHO cells
hERG ion channel, sequence (Q12809 whole entry): as the sequence (Q12809 whole entry) above
Protocol: Experiments were performed on the QPatchII 48X(Sophion Biosciences) high throughput patch clamp platform at 30 degrees Celsius using single holes QChips (Sophion Bioscience). Chinese hamster ovary K1 (CHO) cell lines over-expressing the hERG ion channel were used from live culture. All compounds were dispensed as solid stocks in glass vials. Compounds were solubilised to 10 or 50 mM DMSO stocks on the day of experiments, after which dilutions in DMSO we undertaken. Stamps of DMSO stocks were made into an MTP plate using glass vials, after which extracellular solution was backfilled creating testing concentrations with a highest concentration of 40 and 200 μM, respectively. The internal patch clamp solution was KF 60 mM, KCl 70 mM, HEPES 10 mM, EGTA 10 mM, and 5 mM Mg ATP (pH7.2).

MOLM-13 cells = assay: Cell death in MOLM-13 cell line, Compound 56-2 with BCL2 inhibitor venetoclax (CellTiter-Glo, 4 days); assay type: cell-based, human
Protocol: Test compound was dispensed using a Tecan compound dispenser into 384-well plates (Microplate 384-well, polypropylene, F-bottom; Greiner Bio-One, #781201) in a ten-by-ten response matrix to assess the combination effects of Menin inhibition (Compound 56-2) together with BCL-2 inhibition (venetoclax) at the following concentrations after subsequent cell seeding in 40 μL of growth media: 10 μM, 3.16 μM, 1 μM, 0.316 μM, 0.1 μM, 0.0316 μM, 0.01 μM, 0.00316 μM, […], and vehicle (DMSO; Sigma-Aldrich, D2650). Cells were seeded at 1000 cells per well and incubated at 37° C. and 5% CO2. MOLM-13 cells were grown in RPM1 1640 (Gibco, #21875091) supplemented with 10% FBS (Gibco; #10091-148) and 1% Pen/Strep (Gibco; #15140-122). After 4 days of compound treatment, plates were placed at room temperature for 15 minutes. 10 μL CellTiter-Glo reagent (Promega, #G9242) was added to the cells and incubated for 10 minutes in the dark on a plate shaker at room temperature. A backseal (Perkin Elmer; #6005199) was added to the plates and luminescence was measured at 0.1 sec/well in an Envision (Perkin Elmer). Data were normalized for each plate so that the average of control wells (DMSO) was set to 0%, and the maximum observed value across the plate was set as 100%. Data fitting was performed using Graphpad Prism and combination effect was assessed using SynergyFinder.

muscarinic M2 receptor, sequence (P08172 whole entry): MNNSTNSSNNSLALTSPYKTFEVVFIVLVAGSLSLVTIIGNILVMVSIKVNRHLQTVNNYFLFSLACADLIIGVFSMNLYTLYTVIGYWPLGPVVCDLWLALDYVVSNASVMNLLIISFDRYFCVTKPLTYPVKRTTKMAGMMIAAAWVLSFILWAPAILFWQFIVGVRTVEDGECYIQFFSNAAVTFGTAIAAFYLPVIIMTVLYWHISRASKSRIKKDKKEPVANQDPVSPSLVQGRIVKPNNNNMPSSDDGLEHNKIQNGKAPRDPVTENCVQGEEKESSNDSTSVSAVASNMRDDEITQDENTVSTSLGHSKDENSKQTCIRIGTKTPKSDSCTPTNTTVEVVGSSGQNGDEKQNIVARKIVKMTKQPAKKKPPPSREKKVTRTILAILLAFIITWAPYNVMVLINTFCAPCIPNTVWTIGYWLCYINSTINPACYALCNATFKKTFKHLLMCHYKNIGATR

CC(C)N(C(=O)c1cc(F)ccc1-n1cc(C(=O)C2CCN(C(=O)[C@H]3NC4CCC3CC4)CC2)c2ccncc21)C(C)C [Example 20, (S)-2-(3-(1-(2-Azabicyclo[2.2.2]octane-3-carbonyl)piperidine-4-carbonyl)-1H-pyrrolo[2,3-c]pyridin-1-yl)-5-fluoro-N,N-diisopropylbenzamide] gave an IC50 (muscarinic M2 receptor) of 5.2 µM, an IC50 (hERG) greater than 200 µM and an IC50 (Menin protein) of 0.022 µM.
Compound Cc1c(C(=O)C2CCN(C(=O)[C@@H]3CCC4(CC4)N3)CC2)c2ccncc2n1-c1ccc(F)cc1C(=O)N1[C@H](C)COC[C@H]1C (single isomer, unassigned) [Example 58-2] has an IC50 (muscarinic M2 receptor) of 8.6 µM, an IC50 (Menin protein) of 0.03 µM and an IC50 (hERG ion channel) of 111 µM.
In the case of CC(C)c1ncccc1-c1cc(F)ccc1-n1cc(C(=O)C2CN(C(=O)[C@H]3N[C@@H]4CC[C@H]3C4)C2)c2ccncc21 [Example 10, (1-((1R,3S,4S)-2-Azabicyclo[2.2.1]heptane-3-carbonyl)azetidin-3-yl)(1-(4-fluoro-2-(2-isopropylpyridin-3-yl)phenyl)-1H-pyrrolo[2,3-c]pyridin-3-yl)methanone], the IC50 (hERG) is reported as 79.1 µM and the IC50 (hERG ion channel) is reported as 33.8 µM.
Cc1c(C(=O)C2CCN(C(=O)[C@@H]3CCC(C)(C)N3)CC2)c2ccncc2n1-c1ccc(F)cc1C(=O)N(C(C)C)C(C)C (single isomer, unassigned) [Compound 56-2] was tested, and the IC50 (hERG) was 138 µM, the “cell viability as monotherapy (in words)” value (MOLM-13 cells) was “cell viability loss was induced” and the IC50 (Menin protein) was 0.043 µM. The IC50 (hERG ion channel) was 42.9 µM.
